Measurements as given in the supplement of paper PMC11061612.

Tests used:
Capivasertib = compound: C1CN(CCC1(C(=O)N[C@@H](CCO)C2=CC=C(C=C2)Cl)N)C3=NC=NC4=C3C=CN4 [Capivasertib]; details: max 10 µM
Summary of the method: (§1)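 Cancer cell lines were dosed for 72 hours (final DMSO typically 0.2%) after 24 hours at 37°C and 5% CO2 in 1536-well plates containing 7.5 μl DMEM/F12 or RPMI with 10% FBS. Viability came from CellTiter-Glo 2.0 luminescence, scaled between blank-well and DMSO-well means, and dose responses were fitted to a two-parameter logistic curve with a non-linear mixed effects model. The single-agent IC50 was obtained from this fit.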

AZD1775 = compound: C=CCn1c(=O)c2cnc(Nc3ccc(N4CCN(C)CC4)cc3)nc2n1-c1cccc(C(C)(C)O)n1 [AZD1775]; details: max 3 µM
Summary of the method: as §1

Trametinib = compound: CC(=O)Nc1cccc(-n2c(=O)n(C3CC3)c(=O)c3c(Nc4ccc(I)cc4F)n(C)c(=O)c(C)c32)c1 [Trametinib]; details: max 1 µM
Summary of the method: as §1

Palbociclib = compound: CC(=O)c1c(C)c2cnc(Nc3ccc(N4CCNCC4)cn3)nc2n(C2CCCC2)c1=O [Palbociclib]; details: max 10 µM
Summary of the method: as §1

AZD1390 = compound: CC(C)n1c(=O)n(C)c2cnc3cc(F)c(-c4ccc(OCCCN5CCCCC5)nc4)cc3c21 [AZD1390]; details: max 0.3 µM
Summary of the method: as §1

Venetoclax = compound: CC1(C)CCC(CN2CCN(c3ccc(C(=O)NS(=O)(=O)c4ccc(NCC5CCOCC5)c([N+](=O)[O-])c4)c(Oc4cnc5[nH]ccc5c4)c3)CC2)=C(c2ccc(Cl)cc2)C1 [Venetoclax]; details: max 1 µM
Summary of the method: as §1

Dasatinib = compound: CC1=C(C(=CC=C1)Cl)NC(=O)C2=CN=C(S2)NC3=CC(=NC(=N3)C)N4CCN(CC4)CCO [Dasatinib]; details: max 2 µM
Summary of the method: as §1

SG3199 = compound: CC1=CN2[C@@H](C1)C=NC3=CC(=C(C=C3C2=O)OC)OCCCCCOC4=C(C=C5C(=C4)N=C[C@@H]6CC(=CN6C5=O)C)OC [SG3199]; details: max 0.001 µM
Summary of the method: as §1

AZD2811 = compound: CCN(CCO)CCCOc1ccc2c(Nc3cc(CC(=O)Nc4cccc(F)c4)[nH]n3)ncnc2c1 [AZD2811]; details: max 1 µM
Summary of the method: as §1

SN-38 = compound: CCc1c2c(nc3ccc(O)cc13)-c1cc3c(c(=O)n1C2)COC(=O)[C@]3(O)CC [SN-38]; details: max 0.3 µM
Summary of the method: as §1

AZD0156 = compound: CN(C)CCCOc1ccc(-c2ccc3ncc4c(c3c2)n(C2CCOCC2)c(=O)n4C)cn1 [AZD0156]; details: max 3 µM
Summary of the method: as §1

AZD4320 = compound: CN(CC[C@H](CSC1=CC=CC=C1)NC2=C(C=C(C=C2)S(=O)(=O)NC(=O)C3=CC=C(C=C3)N4CCC(CC4)[C@H](C5=CC=CC=C5C6=CC=C(C=C6)Cl)O)S(=O)(=O)C(F)(F)F)CCO [AZD4320]; details: max 1 µM
Summary of the method: as §1

Alisertib = compound: COc1cc(Nc2ncc3c(n2)-c2ccc(Cl)cc2C(c2c(F)cccc2OC)=NC3)ccc1C(=O)O [Alisertib]; details: max 10 µM
Summary of the method: as §1

Gefitinib = compound: COc1cc2ncnc(Nc3ccc(F)c(Cl)c3)c2cc1OCCCN1CCOCC1 [Gefitinib]; details: max 10 µM
Summary of the method: as §1

Prexasertib = compound: COc1cccc(OCCCN)c1-c1cc(Nc2cnc(C#N)cn2)n[nH]1 [Prexasertib]; details: max 1 µM
Summary of the method: as §1

Doxorubicin = compound: COc1cccc2c1C(=O)c1c(O)c3c(c(O)c1C2=O)C[C@@](O)(C(=O)CO)C[C@@H]3O[C@H]1C[C@H](N)[C@H](O)[C@H](C)O1 [Doxorubicin]; details: max 1 µM
Summary of the method: as §1

AZD5153 = compound: COc1nnc2ccc(N3CCC(c4ccc(OCCN5CCN(C)C(=O)[C@H]5C)cc4)CC3)nn12 [AZD5153]; details: max 1 µM
Summary of the method: as §1

Lapatinib = compound: CS(=O)(=O)CCNCc1ccc(-c2ccc3ncnc(Nc4ccc(OCc5cccc(F)c5)c(Cl)c4)c3c2)o1 [Lapatinib]; details: max 10 µM
Summary of the method: as §1

AZD8186 = compound: C[C@@H](Nc1cc(F)cc(F)c1)c1cc(C(=O)N(C)C)cc2c(=O)cc(N3CCOCC3)oc12 [AZD8186]; details: max 3 µM
Summary of the method: as §1

Crizotinib = compound: C[C@@H](Oc1cc(-c2cnn(C3CCNCC3)c2)cnc1N)c1c(Cl)ccc(F)c1Cl [Crizotinib]; details: max 10 µM
Summary of the method: as §1

Savolitinib = compound: C[C@@H](c1ccc2nccn2c1)n1nnc2ncc(-c3cnn(C)c3)nc21 [Savolitinib]; details: max 1 µM
Summary of the method: as §1

AZD6738 = compound: C[C@@H]1COCCN1C2=NC(=NC(=C2)C3(CC3)[S@](=N)(=O)C)C4=C5C=CNC5=NC=C4 [AZD6738]; details: max 10 µM
Summary of the method: as §1

AZD5991 = compound: Cc1c2c(nn1C)CSCc1cc(n(C)n1)CSc1cc(c3ccccc3c1)OCCCc1c(C(=O)O)n(C)c3c-2c(Cl)ccc13 [AZD5991]; details: max 1 µM
Summary of the method: as §1

AZD7648 = compound: Cc1cc2ncnn2cc1Nc1ncc2c(n1)n(C1CCOCC1)c(=O)n2C [AZD7648]; details: max 10 µM
Summary of the method: as §1

Taselisib = compound: Cc1nc(-c2cn3c(n2)-c2ccc(-c4cnn(C(C)(C)C(N)=O)c4)cc2OCC3)n(C(C)C)n1 [Taselisib]; details: max 10 µM
Summary of the method: as §1

Selumetinib = compound: Cn1cnc2c(F)c(Nc3ccc(Br)cc3Cl)c(C(=O)NOCCO)cc21 [Selumetinib]; details: max 10 µM
Summary of the method: as §1

Olaparib = compound: O=C(c1cc(Cc2n[nH]c(=O)c3ccccc23)ccc1F)N1CCN(C(=O)C2CC2)CC1 [Olaparib]; details: max 10 µM
Summary of the method: as §1

MK-2206 = compound: NC1(c2ccc(-c3nc4ccn5c(=O)[nH]nc5c4cc3-c3ccccc3)cc2)CCC1 [MK-2206]; details: max 10 µM
Summary of the method: as §1

Cell Line | IC50, cell viability 72 h (Capivasertib) [nM] | IC50, cell viability 72 h (AZD1775) [nM] | IC50, cell viability 72 h (Trametinib) [nM] | IC50, cell viability 72 h (Palbociclib) [nM] | IC50, cell viability 72 h (AZD1390) [nM] | IC50, cell viability 72 h (Venetoclax) [nM] | IC50, cell viability 72 h (Dasatinib) [nM] | IC50, cell viability 72 h (SG3199) [nM] | IC50, cell viability 72 h (AZD2811) [nM] | IC50, cell viability 72 h (SN-38) [nM] | IC50, cell viability 72 h (AZD0156) [nM] | IC50, cell viability 72 h (AZD4320) [nM] | IC50, cell viability 72 h (Alisertib) [nM] | IC50, cell viability 72 h (Gefitinib) [nM] | IC50, cell viability 72 h (Prexasertib) [nM] | IC50, cell viability 72 h (Doxorubicin) [nM] | IC50, cell viability 72 h (AZD5153) [nM] | IC50, cell viability 72 h (Lapatinib) [nM] | IC50, cell viability 72 h (AZD8186) [nM] | IC50, cell viability 72 h (Crizotinib) [nM] | IC50, cell viability 72 h (Savolitinib) [nM] | IC50, cell viability 72 h (AZD6738) [nM] | IC50, cell viability 72 h (AZD5991) [nM] | IC50, cell viability 72 h (AZD7648) [nM] | IC50, cell viability 72 h (Taselisib) [nM] | IC50, cell viability 72 h (Selumetinib) [nM] | IC50, cell viability 72 h (Olaparib) [nM] | IC50, cell viability 72 h (MK-2206) [nM]
Jurkat (T-Lymphoblastic Leukemia) | 2610 | 1740 | > 1000 | 7660 | > 300 | > 1000 | > 2000 | > 1 | > 1000 | 7.97 | > 3000 | 482 | 8510 | > 10000 | 25.8 | 415 | 210 | > 10000 | > 3000 | > 10000 | > 1000 | 3550 | 292 | > 10000 | 5810 | > 10000 | > 10000 | –
JVM-2 (B-Cell Non-Hodgkin's Lymphoma) | 1280 | 98.3 | > 1000 | 1540 | > 300 | > 1000 | 44.6 | > 1 | 238 | 3.86 | > 3000 | > 1000 | 203 | > 10000 | 10.8 | 48.1 | 53.1 | 9870 | 976 | 5650 | > 1000 | 3230 | > 1000 | > 10000 | 307 | > 10000 | > 10000 | –
EPLC-272H (Other Solid Carcinomas) | 1800 | 454 | 22.7 | > 10000 | > 300 | > 1000 | 148 | > 1 | > 1000 | 126 | > 3000 | > 1000 | > 10000 | 5460 | 8.51 | > 1000 | 116 | 5770 | > 3000 | > 10000 | > 1000 | 1000 | 391 | > 10000 | 256 | 2280 | > 10000 | –
GA-10 (Burkitt's Lymphoma) | 1480 | 503 | > 1000 | 234 | > 300 | > 1000 | 166 | > 1 | 108 | 23.4 | > 3000 | > 1000 | 147 | > 10000 | 9.18 | 369 | 83.3 | > 10000 | 978 | 2340 | > 1000 | 631 | 252 | > 10000 | 845 | > 10000 | > 10000 | –
HCC1428 (Breast Carcinoma) | > 10000 | > 3000 | > 1000 | > 10000 | > 300 | > 1000 | > 2000 | > 1 | > 1000 | > 300 | > 3000 | > 1000 | > 10000 | > 10000 | > 1000 | > 1000 | 483 | > 10000 | > 3000 | > 10000 | > 1000 | > 10000 | 67.7 | > 10000 | > 10000 | > 10000 | > 10000 | > 10000
A204 (Rhabdomyosarcoma) | > 10000 | > 3000 | > 1000 | > 10000 | > 300 | > 1000 | 1390 | > 1 | > 1000 | 132 | > 3000 | > 1000 | > 10000 | > 10000 | 362 | 528 | > 1000 | > 10000 | > 3000 | > 10000 | > 1000 | > 10000 | > 1000 | > 10000 | 4320 | > 10000 | > 10000 | –
RH-41 (Rhabdomyosarcoma) | 314 | 729 | > 1000 | > 10000 | > 300 | > 1000 | > 2000 | > 1 | > 1000 | 57 | > 3000 | 87 | 3430 | > 10000 | 23.1 | 476 | 96.8 | > 10000 | > 3000 | 1980 | > 1000 | 4120 | 88.5 | > 10000 | 93.1 | > 10000 | > 10000 | –
